Reference: US20060247260A1, “Bis (hetero) aryl carboxamide derivatives for use as PG12 antagonists” (BAYER HEALTHCARE AG, priority 2003, published 2006)

Test system: not given
Assay: not given
Details: not given

melting point [°C] | SMILES
215 to 216 | O=C(NC(Cc1ccccc1)C(=O)O)c1ccc(-c2ccc(OCc3ccccc3)cc2)s1 (centres unmarked) [Example 2-1, 2-{[5-(4-Benzyloxyphenyl)thiophene-2-carbonyl]amino}-3-phenyl-propionic acid]
196 to 200 | O=C(NC(Cc1ccccc1)C(=O)O)c1cc(-c2ccc(OCc3ccccc3)cc2)[nH]n1 (centres unmarked) [Example 1-1, 2-{[5-(4-Benzyloxyphenyl)-1H-pyrazole-3-carbonyl]amino}-3-phenylpropionic acid]

SMILES | melting point [°C]
O=C(NC(Cc1ccccc1)C(=O)[O-])c1ccc(-c2ccc(OCc3ccccc3)nc2)cc1.[Na+] (centres unmarked) [Example 6-1, Sodium 2-[4-(6-benzyloxypyridin-3-yl)benzoylamino]-3-phenylpropionate] | 240 to 242

Target: T1, PGI2 receptor (Homo sapiens, UniProt P43119)
T1 construct: host or cells: HEL 92.1.7 human erythroleukemia cells (whole cells)
T1 sequence (P43119 whole entry): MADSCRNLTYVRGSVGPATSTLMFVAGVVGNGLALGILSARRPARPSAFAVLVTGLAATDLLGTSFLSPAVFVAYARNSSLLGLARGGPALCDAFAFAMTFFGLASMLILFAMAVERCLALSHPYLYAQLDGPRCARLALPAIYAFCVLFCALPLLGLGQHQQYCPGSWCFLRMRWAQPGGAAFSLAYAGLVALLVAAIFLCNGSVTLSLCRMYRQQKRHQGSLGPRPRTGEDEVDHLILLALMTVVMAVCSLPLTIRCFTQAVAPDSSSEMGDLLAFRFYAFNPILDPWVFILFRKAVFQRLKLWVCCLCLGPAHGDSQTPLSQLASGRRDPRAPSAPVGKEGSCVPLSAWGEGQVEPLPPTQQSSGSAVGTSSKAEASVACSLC
Assay: PGI2 receptor binding/cAMP in HEL cells (in vitro activity grade)
Details: compounds of purity about 40 to 90%
Method: [Measurement of the [^3H]-Iloprost Binding to HEL Cells] (Assay 1) A human erythloleukemia cell line, HEL 92.1.7, was purchased from American Type Culture Correction and maintained in RPMI-1640 medium (Gibco BRL) supplemented with 10% fetal calf serum (FCS), 2 mM glutamine, 4.5 g/L glucose, 10 mM Hepes, 1 mM sodium pyruvate, 100 U/ml penicillin, and 100 μg/ml streptomycin in a humidified 5% CO2 atmosphere at 37° C. Cells were collected with centrifugation and washed with binding assay buffer (BAB: 50 mM Tris-HCl, 5 mM MgCl2 (pH 7.5)). Cells were suspended at the density of 6.25×10^6 cells/ml in BAB, and one million cells in 160 μl aliquot of cell suspension were put in a well of 96 well plate (Falcon). Then, 20 μl of compound solution, 100 μM of iloprost (for non-specific binding), or buffer alone (total binding), diluted with 1% DMSO in BAB was added. Finally, another 20 μl containing [^3H]-iloprost (0.02 μCi, 0.5-1 pmol) in BAB was added and incubated at room temperature for 30 min with a gentle shaking. Cell suspension was then transferred to a well of MultiScreen plate with GF/C glass filters (Millipore) to harvest cells. Cells were washed twice with 200 μl of ice-cold BAB and the plate was kept at 55° C. for 30 min to dry filters. The filter in the well was punched out to a counting tube and 2 ml of Ultima Gold XR Packard) was added. [^3H]-radio activity in the filter was measured by a liquid scintillation counter (Beckman, USA). [Iloprost-Induced cAMP Production Assay in HEL Cells] (Assay 2) HEL cells were collected with centrifugation and washed with cAMP assay buffer (CAB: Hank's balanced salt solution, 17 mM Hepes, 0.1% bovine serum albumin, 1 mM IBMX, 0.4% DMSO, and 1 mM L-ascorbic acid sodium salt (pH 7.4)). Cells were suspended at the density of 2.5×10^5 cells/ml in CAB, and twenty thousand cells in 80 μl aliquot of cell suspension were put in a well of 96 well plate (Falcon). Then, 10 μl of compound solution diluted with 1% DMSO in CAB or buffer alone was added. The plate was incubated at 37° C. for 30 min. Then, another 10 μl containing 100 nM iloprost in CAB or buffer alone was added and further incubated at 37° C. for 30 min. cAMP content in the well was measured by, a cAMP ELISA kit (Applied Biosystems, USA). The data corresponds to the compounds as yielded by solid phase synthesis and thus to levels of purity of about 40 to 90%. For practical reasons, the compounds are grouped in three classes of activity as follows: In vitro activity grade=A≦0.1 μM<B≦1 μM<C

SMILES | In vitro activity grade
O=C(NC(Cc1ccccc1)C(=O)O)c1ccc(-c2ccc(OCc3ccccc3)cc2)s1 (centres unmarked) [Example 2-1, 2-{[5-(4-Benzyloxyphenyl)thiophene-2-carbonyl]amino}-3-phenyl-propionic acid] | A (A≦0.1 μM)
O=C(NC(Cc1ccccc1)C(=O)O)c1ccc(-c2ccc(OCc3cccc(F)c3)cc2)cc1 (centres unmarked) [Example 8-4] | A (A≦0.1 μM)
Cc1cccc(COc2ccc(-c3ccc(C(=O)NC(Cc4ccccc4)C(=O)O)cc3)cc2)c1 (centres unmarked) [Example 8-1, 2-{[4′-(3-Methylbenzyloxy)biphenyl-4-carbonyl]amino}-3-phenylpropionic acid] | A (A≦0.1 μM)
O=C(NC(Cc1ccccc1)C(=O)O)c1ccc(-c2ccc(OCc3ccc(F)c(F)c3)cc2)cc1 (centres unmarked) [Example 8-6] | A (A≦0.1 μM)
O=C(NC(Cc1ccccc1)C(=O)O)c1ccc(-c2ccc(OCc3ccc(F)cc3F)cc2)cc1 (centres unmarked) [Example 8-18] | A (A≦0.1 μM)
O=C(NC(Cc1ccccc1)C(=O)O)c1ccc(-c2ccc(OCc3cccc(OC(F)(F)F)c3)cc2)cc1 (centres unmarked) [Example 8-30] | C (1 μM<C)
Cc1cc(C)cc(COc2ccc(-c3ccc(C(=O)NC(Cc4ccccc4)C(=O)O)cc3)cc2)c1 (centres unmarked) [Example 8-25] | B (0.1 μM<B≦1 μM)
Cc1ccc(C)c(COc2ccc(-c3ccc(C(=O)NC(Cc4ccccc4)C(=O)O)cc3)cc2)c1 (centres unmarked) [Example 8-26] | B (0.1 μM<B≦1 μM)
COc1ccccc1COc1ccc(-c2ccc(C(=O)NC(Cc3ccccc3)C(=O)O)cc2)cc1 (centres unmarked) [Example 8-13] | B (0.1 μM<B≦1 μM)
COc1cc(COc2ccc(-c3ccc(C(=O)NC(Cc4ccccc4)C(=O)O)cc3)cc2)cc(OC)c1OC (centres unmarked) [Example 8-16] | C (1 μM<C)
O=C(NC(Cc1ccccc1)C(=O)O)c1ccc(-c2ccc(OCc3c(F)cccc3F)cc2)cc1 (centres unmarked) [Example 8-12] | B (0.1 μM<B≦1 μM)
O=C(NC(Cc1ccccc1)C(=O)O)c1cc(-c2ccc(OCc3ccccc3)cc2)on1 (centres unmarked) [Example 1-2, 2-{[5-(4-Benzyloxyphenyl)isoxazole-3-carbonyl]amino}-3-phenyl-propionic acid] | A (A≦0.1 μM)
O=C(NC(Cc1ccccc1)C(=O)O)c1ccc(-c2ccc(OCc3cccc(Cl)c3)cc2)cc1 (centres unmarked) [Example 8-22] | A (A≦0.1 μM)
CC(Oc1ccc(-c2ccc(C(=O)NC(Cc3ccccc3)C(=O)O)cc2)cc1)c1ccccc1 (centres unmarked) [Example 8-36] | B (0.1 μM<B≦1 μM)
O=C(NC(Cc1ccccc1)C(=O)O)c1ccc(-c2ccc(OCc3cccc(Cl)c3Cl)cc2)cc1 (centres unmarked) [Example 8-11] | A (A≦0.1 μM)
O=C(NC(Cc1ccccc1)C(=O)O)c1ccc(-c2ccc(OCc3ccc(OC(F)(F)F)cc3)cc2)cc1 (centres unmarked) [Example 8-31] | C (1 μM<C)

SMILES | In vitro activity grade
O=C(NC(Cc1ccccc1)C(=O)O)c1ccc(-c2ccc(OCc3ccccc3)cc2)nc1 (centres unmarked) [Example 4-1, 2-{[6-(4-benzyloxy-phenyl)-pyridine-3-carbonyl]-amino}-3-phenyl-propionic acid] | A (A≦0.1 μM)
O=C(NC(Cc1ccccc1)C(=O)O)c1ccc(-c2ccc(OCc3ccc(C(F)(F)F)cc3)cc2)cc1 (centres unmarked) [Example 8-21] | C (1 μM<C)
O=C(NC(Cc1ccccc1)C(=O)O)c1ccc(-c2ccc(OCc3ccc(Cl)cc3)cc2)cc1 (centres unmarked) [Example 8-32] | B (0.1 μM<B≦1 μM)
O=C(NC(Cc1ccccc1)C(=O)O)c1ccc(-c2ccc(OCCN3CCCCC3)cc2)cc1 (centres unmarked) [Example 8-40] | C (1 μM<C)
O=C(NC(Cc1ccccc1)C(=O)O)c1ccc(-c2ccc(OCc3ccc(Cl)c(Cl)c3)cc2)cc1 (centres unmarked) [Example 8-10] | B (0.1 μM<B≦1 μM)
O=C(NC(Cc1ccccc1)C(=O)[O-])c1ccc(-c2ccc(OCc3ccccc3)nc2)cc1.[Na+] (centres unmarked) [Example 6-1, Sodium 2-[4-(6-benzyloxypyridin-3-yl)benzoylamino]-3-phenylpropionate] | A (A≦0.1 μM)
O=C(NC(Cc1ccccc1)C(=O)O)c1ccc(-c2ccc(OCc3cccc(C(F)(F)F)c3)cc2)cc1 (centres unmarked) [Example 8-20] | B (0.1 μM<B≦1 μM)
Nc1cccc(COc2ccc(-c3ccc(C(=O)NC(Cc4ccccc4)C(=O)O)cc3)cc2)c1 (centres unmarked) [Example 8-39] | A (A≦0.1 μM)
COc1ccc(COc2ccc(-c3ccc(C(=O)NC(Cc4ccccc4)C(=O)O)cc3)cc2)cc1 (centres unmarked) [Example 8-15] | B (0.1 μM<B≦1 μM)
O=C(NC(Cc1ccccc1)C(=O)O)c1ccc(-c2ccc(OCc3ccccc3)cc2)cc1 (centres unmarked) [Example 3-1, 2-[(4′-Benzyloxy-biphenyl-4-carbonyl)-amino]-3-phenyl-propionic acid] | A (A≦0.1 μM)
O=C(NC(Cc1ccccc1)C(=O)O)c1ccc(-c2ccc(OCc3ccccc3Cl)cc2)cc1 (centres unmarked) [Example 8-17] | A (A≦0.1 μM)
COc1cccc(COc2ccc(-c3ccc(C(=O)NC(Cc4ccccc4)C(=O)O)cc3)cc2)c1 (centres unmarked) [Example 8-14] | A (A≦0.1 μM)
O=C(NC(Cc1ccccc1)C(=O)O)c1ccc(-c2ccc(OCc3ccccc3OC(F)(F)F)cc2)cc1 (centres unmarked) [Example 8-29] | C (1 μM<C)
O=C(NC(Cc1ccccc1)C(=O)O)c1ccc(-c2ccc(OCCCn3cccc3)cc2)cc1 (centres unmarked) [Example 8-34] | B (0.1 μM<B≦1 μM)
O=C(NC(Cc1ccccc1)C(=O)O)c1ccc(-c2ccc(OCc3ccccc3F)cc2)cc1 (centres unmarked) [Example 8-3] | A (A≦0.1 μM)

Next, values leading:

In vitro activity grade | SMILES
C (1 μM<C) | O=C(NC(Cc1ccccc1)C(=O)O)c1ccc(-c2ccc(OCc3cc(Cl)cc(Cl)c3)cc2)cc1 (centres unmarked) [Example 8-8]
A (A≦0.1 μM) | O=C(NC(Cc1ccccc1)C(=O)O)c1ccc(-c2ccc(OCc3ccc(F)cc3)cc2)cc1 (centres unmarked) [Example 8-5]
A (A≦0.1 μM) | O=C(NC(Cc1ccccc1)C(=O)O)c1ccc(-c2ccc(OCCc3ccccc3)cc2)cc1 (centres unmarked) [Example 8-35]
B (0.1 μM<B≦1 μM) | O=C(NC(Cc1ccccc1)C(=O)O)c1ccc(-c2ccc(OCCCc3ccccc3)cc2)cc1 (centres unmarked) [Example 8-37]
B (0.1 μM<B≦1 μM) | Cc1ccc(COc2ccc(-c3ccc(C(=O)NC(Cc4ccccc4)C(=O)O)cc3)cc2)cc1 (centres unmarked) [Example 8-19]
B (0.1 μM<B≦1 μM) | O=C(NC(Cc1ccccc1)C(=O)O)c1ccc(-c2ccc(OCC3CCCCC3)cc2)cc1 (centres unmarked) [Example 8-33]
A (A≦0.1 μM) | O=C(NC(Cc1ccccc1)C(=O)O)c1ccc(-c2ccc(OCc3c(Cl)cccc3Cl)cc2)cc1 (centres unmarked) [Example 8-7]
C (1 μM<C) | O=C(NC(Cc1ccccc1)C(=O)O)c1ccc(-c2ccc(OCc3ccc(Cl)cc3Cl)cc2)cc1 (centres unmarked) [Example 8-9]
B (0.1 μM<B≦1 μM) | Cc1ccc(COc2ccc(-c3ccc(C(=O)NC(Cc4ccccc4)C(=O)O)cc3)cc2)c(C)c1 (centres unmarked) [Example 8-27]
A (A≦0.1 μM) | O=C(NC(Cc1ccccc1)C(=O)O)c1ccc(-c2ccc(OCc3cccc([N+](=O)[O-])c3)cc2)cc1 (centres unmarked) [Example 8-28]
B (0.1 μM<B≦1 μM) | O=C(NC(Cc1ccccc1)C(=O)O)c1ccc(-c2ccc(OCc3ccc([N+](=O)[O-])cc3)cc2)cc1 (centres unmarked) [Example 8-2]
B (0.1 μM<B≦1 μM) | CCCCOc1ccc(-c2ccc(C(=O)NC(Cc3ccccc3)C(=O)O)cc2)cc1 (centres unmarked) [Example 8-38]
A (A≦0.1 μM) | COc1cc(COc2ccc(-c3ccc(C(=O)NC(Cc4ccccc4)C(=O)O)cc3)cc2)cc(OC)c1 (centres unmarked) [Example 8-23]
A (A≦0.1 μM) | Cc1ccccc1COc1ccc(-c2ccc(C(=O)NC(Cc3ccccc3)C(=O)O)cc2)cc1 (centres unmarked) [Example 8-24]
A (A≦0.1 μM) | O=C(NC(Cc1ccccc1)C(=O)O)c1ccc(-c2cnc(OCc3ccccc3)nc2)cc1 (centres unmarked) [Example 5-1, 2-[4-(2-Benzyloxypyrimidin-5-yl)benzoylamino]-3-phenylpropionic acid]
A (A≦0.1 μM) | O=C(NC(Cc1ccccc1)C(=O)O)c1cc(-c2ccc(OCc3ccccc3)cc2)[nH]n1 (centres unmarked) [Example 1-1, 2-{[5-(4-Benzyloxyphenyl)-1H-pyrazole-3-carbonyl]amino}-3-phenylpropionic acid]
